The term inhibition denotes the percentage by which the read-out fell short of the control.

From ChEMBL document CHEMBL3745650, “Anti-inflammatory properties of quebecol and its derivatives” (Bioorg Med Chem Lett, 2016) come the findings set out here.

Series [1] is described as follows: Antiinflammatory activity in PMA-differentiated human U937 cells assessed as inhibition of LPS-stimulated IL-6 secretion at 250 uM preincubated for 2 hrs followed by LPS-stimulation measured after 24 hrs by ELISA relative to control. Format: functional. As to conditions: U-937. For orientation: In an ELISA, binding on a coated surface is turned into a signal by an enzyme label.

Series [2] can be described thus: Antiinflammatory activity in PMA-differentiated human U937 cells assessed as inhibition of LPS-stimulated TNF-alpha secretion at 500 uM preincubated for 2 hrs followed by LPS-stimulation measured after 24 hrs by ELISA relative to control. Conditions: U-937. It counts as functional.
Series [3] is described as follows: Antiinflammatory activity in PMA-differentiated human U937 cells assessed as inhibition of LPS-stimulated IL-8 secretion at 62.5 uM preincubated for 2 hrs followed by LPS-stimulation measured after 24 hrs by ELISA relative to control. Format: functional. As to conditions: U-937.
Series [4] in a line: Antiinflammatory activity in human U937-3xkB-luc cells assessed as inhibition of LPS-induced NFkappaB activation at 5 uM preincubated for 30 mins followed by LPS-stimulation measured after 6 hrs by luciferase assay relative to control. It counts as functional. Conditions: U-937.
Series [5] in a line: Antiinflammatory activity in PMA-differentiated human U937 cells assessed as inhibition of LPS-stimulated IL-1beta secretion at 500 uM preincubated for 2 hrs followed by LPS-stimulation measured after 24 hrs by ELISA relative to control. Format: functional. As to conditions: U-937.
Series [6] is described as follows: Cytotoxicity against PMA-differentiated human U937 macrophages assessed as reduction in cell viability after 24 hrs by MTT assay. Conditions: u-937, 24 h. It counts as cell-based. For orientation: Tetrazolium dyes change colour on reduction, which living cells bring about.
Series [7] is described as follows: Antiinflammatory activity in PMA-differentiated human U937 cells assessed as inhibition of LPS-stimulated TNF-alpha secretion at 62.5 uM preincubated for 2 hrs followed by LPS-stimulation measured after 24 hrs by ELISA relative to control. Format: functional. Conditions: U-937.
The nature of series [8]: Antiinflammatory activity in PMA-differentiated human U937 cells assessed as inhibition of LPS-stimulated IL-6 secretion at 125 uM preincubated for 2 hrs followed by LPS-stimulation measured after 24 hrs by ELISA relative to control. Format: functional. Conditions: U-937.
The nature of series [9]: Antiinflammatory activity in PMA-differentiated human U937 cells assessed as inhibition of LPS-stimulated IL-6 secretion at 62.5 uM preincubated for 2 hrs followed by LPS-stimulation measured after 24 hrs by ELISA relative to control. As to conditions: U-937. Format: functional.
A short description of series [10]: Antiinflammatory activity in PMA-differentiated human U937 cells assessed as inhibition of LPS-stimulated IL-8 secretion at 125 uM preincubated for 2 hrs followed by LPS-stimulation measured after 24 hrs by ELISA relative to control. As to conditions: U-937. Format: functional.
Series [11] in a line: Antiinflammatory activity in PMA-differentiated human U937 cells assessed as inhibition of LPS-stimulated IL-8 secretion at 250 uM preincubated for 2 hrs followed by LPS-stimulation measured after 24 hrs by ELISA relative to control. Format: functional. As to conditions: U-937.
Series [12] can be described thus: Antiinflammatory activity in PMA-differentiated human U937 cells assessed as inhibition of LPS-stimulated IL-6 secretion at 500 uM preincubated for 2 hrs followed by LPS-stimulation measured after 24 hrs by ELISA relative to control. Conditions: U-937. Format: functional.
A short description of series [13]: Antiinflammatory activity in human U937-3xkB-luc cells assessed as inhibition of LPS-induced NFkappaB activation at 100 uM preincubated for 30 mins followed by LPS-stimulation measured after 6 hrs by luciferase assay relative to control. It counts as functional. Conditions: U-937.
Series [14] in a line: Antiinflammatory activity in PMA-differentiated human U937 cells assessed as inhibition of LPS-stimulated TNF-alpha secretion at 250 uM preincubated for 2 hrs followed by LPS-stimulation measured after 24 hrs by ELISA relative to control. It counts as functional. Conditions: U-937.
Series [15] is described as follows: Antiinflammatory activity in PMA-differentiated human U937 cells assessed as inhibition of LPS-stimulated IL-8 secretion at 500 uM preincubated for 2 hrs followed by LPS-stimulation measured after 24 hrs by ELISA relative to control. Conditions: U-937. Format: functional.
The nature of series [16]: Antiinflammatory activity in PMA-differentiated human U937 cells assessed as inhibition of LPS-stimulated IL-1beta secretion at 62.5 uM preincubated for 2 hrs followed by LPS-stimulation measured after 24 hrs by ELISA relative to control. Conditions: U-937. Format: functional.
Series [17] deals with U-937. The series is described as follows: (§1) Antiinflammatory activity in PMA-differentiated human U937 cells assessed as inhibition of LPS-stimulated IL-6 secretion preincubated for 2 hrs followed by LPS-stimulation measured after 24 hrs by ELISA relative to control. It counts as functional.
For series [18], the system named is U-937. Briefly: (§2) Antiinflammatory activity in PMA-differentiated human U937 cells assessed as inhibition of LPS-stimulated TNF-alpha secretion preincubated for 2 hrs followed by LPS-stimulation measured after 24 hrs by ELISA relative to control. Format: functional.
A short description of series [19]: Antiinflammatory activity in PMA-differentiated human U937 cells assessed as inhibition of LPS-stimulated IL-1beta secretion at 250 uM preincubated for 2 hrs followed by LPS-stimulation measured after 24 hrs by ELISA relative to control. It counts as functional. As to conditions: U-937.
Series [20] in a line: Antiinflammatory activity in PMA-differentiated human U937 cells assessed as inhibition of LPS-stimulated TNF-alpha secretion at 125 uM preincubated for 2 hrs followed by LPS-stimulation measured after 24 hrs by ELISA relative to control. It counts as functional. Conditions: U-937.
Series [21] can be described thus: Antiinflammatory activity in PMA-differentiated human U937 cells assessed as inhibition of LPS-stimulated IL-1beta secretion at 125 uM preincubated for 2 hrs followed by LPS-stimulation measured after 24 hrs by ELISA relative to control. As to conditions: U-937. It counts as functional.
The nature of series [22]: Antiinflammatory activity in human U937-3xkB-luc cells assessed as inhibition of LPS-induced NFkappaB activation at 20 uM preincubated for 30 mins followed by LPS-stimulation measured after 6 hrs by luciferase assay relative to control. It counts as functional. Conditions: U-937.
Series [23] can be described thus: Antiinflammatory activity in PMA-differentiated human U937 cells assessed as inhibition of LPS-stimulated IL-8 secretion preincubated for 2 hrs followed by LPS-stimulation measured after 24 hrs by ELISA relative to control. It counts as functional, U-937.
Series [24] in a line: Antiinflammatory activity in PMA-differentiated human U937 cells assessed as inhibition of LPS-stimulated IL-1beta secretion preincubated for 2 hrs followed by LPS-stimulation measured after 24 hrs by ELISA relative to control. Format: functional, U-937.
Series [25] can be described thus: Antiinflammatory activity in human U937-3xkB-luc cells assessed as inhibition of LPS-induced NFkappaB activation preincubated for 30 mins followed by LPS-stimulation measured after 6 hrs by luciferase assay relative to control. It counts as functional, U-937.
Series [26] is described as follows: as §1. It counts as functional, U-937.
Series [27] is described as follows: as §2. It counts as functional, U-937.

For `COc1cc(C(CO)C(c2ccc(O)c(OC)c2)c2ccc(O)c(OC)c2)ccc1O` (configuration not stated), the inhibition at 250 µM was 62.6% in series [1], 0% in series [11], 17.5% in series [14] and 9.4% in [19]. Moreover, the inhibition at 500 µM in series [2] was 60%; in [5] it was 0.9%; in [12], 84.3%; in series [15], 0.3%. For the same molecule, the inhibition at 62.5 µM was found to be 0% in [3], 0% in series [7], 1.1% in [9] and 1.1% in [16]. For the same molecule, the inhibition at 5 µM in [4] was determined as 11.2%. In series [6], the Activity is 500 µM. The inhibition at 125 µM in series [8] came out at 45.5%; in series [10], 0.2%; in series [20], 19.8%; in [21] it was 25.1%. Further, in series [13], the inhibition at 100 µM worked out at 43.4%. The inhibition entry with U-937 [17] and with U-937 [18] was “Dose-dependent effect” in each case. Further, the inhibition at 20 µM in series [22] was found to be 13.5%.

For the molecule `Cc1ccc(S(=O)(=O)/C=C/C#N)cc1`, the “inhibition (INH)” value stood at 99.1% in series [23]; 95.9% in [24]; 99.3% in series [25]; 99.2% in series [26]; 99.5% in series [27].
